The source of these data is ChEMBL document CHEMBL1145088, “Ascochlorin derivatives as ligands for nuclear hormone receptors” (J Med Chem, 2003).

The test system of one data set is U2OS (Homo sapiens). The data set can be described thus: Concentration required for inhibition of U2OS cell growth.
Data set [1] addresses T1, Nuclear receptor subfamily 1 group I member 2 (Homo sapiens, UniProt O75469).
T1 sequence (O75469 whole entry): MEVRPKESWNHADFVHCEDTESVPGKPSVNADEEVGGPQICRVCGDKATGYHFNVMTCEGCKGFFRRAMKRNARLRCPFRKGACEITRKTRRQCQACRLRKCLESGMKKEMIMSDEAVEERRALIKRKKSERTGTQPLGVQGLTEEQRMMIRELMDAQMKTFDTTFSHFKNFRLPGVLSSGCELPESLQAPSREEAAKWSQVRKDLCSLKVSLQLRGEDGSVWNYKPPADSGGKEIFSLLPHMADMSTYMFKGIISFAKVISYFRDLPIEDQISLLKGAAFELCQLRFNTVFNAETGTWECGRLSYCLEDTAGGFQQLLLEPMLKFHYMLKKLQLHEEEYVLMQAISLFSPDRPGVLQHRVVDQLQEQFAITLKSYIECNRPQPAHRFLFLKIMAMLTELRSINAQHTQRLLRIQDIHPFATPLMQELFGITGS
The data set can be described thus: Minimum effective concentration required to activate pregnane X receptor (PXR).

For another data set, the target named is Estrogen receptor beta (Homo sapiens, UniProt Q92731). The data set can be described thus: Minimum effective concentration required to activate Estrogen receptor 2 (ER beta); Not detected.
For a further data set, the target named is T2, Estrogen receptor (Homo sapiens, UniProt P03372).
T2 sequence (P03372 whole entry): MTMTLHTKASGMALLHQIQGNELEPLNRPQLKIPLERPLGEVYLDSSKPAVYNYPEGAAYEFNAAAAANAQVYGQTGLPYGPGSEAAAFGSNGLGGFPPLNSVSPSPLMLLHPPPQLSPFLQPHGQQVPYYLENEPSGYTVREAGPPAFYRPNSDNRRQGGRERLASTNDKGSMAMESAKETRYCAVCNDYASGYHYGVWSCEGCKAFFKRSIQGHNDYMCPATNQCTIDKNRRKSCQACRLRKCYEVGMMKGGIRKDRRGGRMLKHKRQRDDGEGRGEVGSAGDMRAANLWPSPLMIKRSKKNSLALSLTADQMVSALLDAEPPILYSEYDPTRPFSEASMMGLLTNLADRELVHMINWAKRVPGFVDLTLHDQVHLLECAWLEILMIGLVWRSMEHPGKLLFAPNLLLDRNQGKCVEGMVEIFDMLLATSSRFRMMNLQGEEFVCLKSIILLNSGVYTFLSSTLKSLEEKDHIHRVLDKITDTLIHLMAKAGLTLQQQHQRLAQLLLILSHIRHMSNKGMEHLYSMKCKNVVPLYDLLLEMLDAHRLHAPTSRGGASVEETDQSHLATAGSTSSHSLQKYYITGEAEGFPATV
The data set can be described thus: Minimum effective concentration required to activate Estrogen receptor 1 (ER alpha); Not detected.

The target of data set [2] is T3, Peroxisome proliferator-activated receptor gamma (Homo sapiens) (UniProt P37231).
T3 sequence (whole entry): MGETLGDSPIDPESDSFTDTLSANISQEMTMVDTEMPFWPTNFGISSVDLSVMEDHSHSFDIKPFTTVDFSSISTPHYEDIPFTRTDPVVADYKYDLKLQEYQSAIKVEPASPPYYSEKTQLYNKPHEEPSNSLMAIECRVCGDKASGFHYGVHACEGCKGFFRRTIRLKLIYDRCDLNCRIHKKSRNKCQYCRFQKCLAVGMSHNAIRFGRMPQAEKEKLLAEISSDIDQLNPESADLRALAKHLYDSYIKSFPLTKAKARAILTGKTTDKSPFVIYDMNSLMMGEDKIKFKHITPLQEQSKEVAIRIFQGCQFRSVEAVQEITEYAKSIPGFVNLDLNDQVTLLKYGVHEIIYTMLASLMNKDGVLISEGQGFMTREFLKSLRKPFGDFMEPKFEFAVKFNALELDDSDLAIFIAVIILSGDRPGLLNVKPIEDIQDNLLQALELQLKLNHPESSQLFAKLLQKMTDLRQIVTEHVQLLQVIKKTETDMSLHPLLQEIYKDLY
The data set can be described thus: Minimum effective concentration required to activate Peroxisome proliferator activated receptor gamma (PPAR gamma).

Sequence of Estrogen receptor beta (Q92731 whole entry): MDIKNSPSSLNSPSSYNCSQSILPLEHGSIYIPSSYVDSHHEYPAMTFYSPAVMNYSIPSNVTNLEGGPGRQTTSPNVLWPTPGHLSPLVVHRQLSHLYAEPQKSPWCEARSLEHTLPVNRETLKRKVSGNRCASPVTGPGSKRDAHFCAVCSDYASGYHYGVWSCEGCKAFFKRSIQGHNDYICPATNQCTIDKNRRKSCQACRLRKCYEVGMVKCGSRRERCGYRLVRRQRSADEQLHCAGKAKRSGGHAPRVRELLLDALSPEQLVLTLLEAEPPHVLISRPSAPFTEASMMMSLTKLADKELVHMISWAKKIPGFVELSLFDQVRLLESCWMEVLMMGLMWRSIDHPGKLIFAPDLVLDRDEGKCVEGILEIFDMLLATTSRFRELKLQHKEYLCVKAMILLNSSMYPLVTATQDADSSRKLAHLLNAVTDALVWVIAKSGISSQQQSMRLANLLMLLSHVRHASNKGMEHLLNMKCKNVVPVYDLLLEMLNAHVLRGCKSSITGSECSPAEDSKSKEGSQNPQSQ

What is called IC50 is the concentration at which inhibition is half-maximal. Read a high IC50 as weaker potency in that assay. As for `CC(/C=C/[C@@]1(C)[C@H](C)CCC(=O)[C@@H]1C)=C\Cc1c(O)c(C=O)c(C)c(Cl)c1OCC(=O)O`, half-maximal inhibition with U2OS (Homo sapiens) (IC50) was put at 56 µM. Moreover, the MEC in data set [1] is 30 µM; at Estrogen receptor beta it was “Not Active”; at Estrogen receptor, “Not Active”; in data set [2], 30 µM.

On to `Cc1c(C=O)cc2c(c1Cl)OC(C)(/C=C/[C@]1(C)C(C)C(=O)CC[C@H]1C)CC2` (stereo partly specified), for which the IC50 in the data set with U2OS (Homo sapiens) is 18 µM. Also, the MEC is 1 µM in data set [1], “Not Active” on Estrogen receptor beta and “Not Active” at Estrogen receptor.

Consider `CC(/C=C/[C@@]1(C)[C@H](C)CCC(=O)[C@@H]1C)=C\Cc1c(O)c(C=O)c(C)c(Cl)c1OC(=O)c1cccnc1`, for which half-maximal inhibition in the data set on U2OS (Homo sapiens) (IC50) required 4.7 µM. For the same molecule, the MEC in data set [1] was 3 µM; on Estrogen receptor beta, “Not Active”; on Estrogen receptor, “Not Active”; in data set [2], 10 µM.

For `CCOC(=O)COc1c(Cl)c(C)c(C=O)c(OC)c1C/C=C(C)/C=C/[C@@]1(C)[C@H](C)CCC(=O)[C@@H]1C`, the midpoint of inhibition in the data set with U2OS (Homo sapiens), the IC50, lay at 3.2 µM. For the same molecule, the MEC in data set [1] was 1 µM; at Estrogen receptor beta, “Not Active”; at Estrogen receptor, “Not Active”; in data set [2], 3 µM.

For the molecule `C/C(=C\Cc1c(O)c(C=O)c(C)c(Cl)c1OCC(=O)O)CC/C=C(\C)[C@@H]1CC(=O)C(C)(C)O1`, the midpoint of inhibition with U2OS (Homo sapiens), the IC50, lay at 32 µM. The MEC in data set [1] was 30 µM; on Estrogen receptor beta it was “Not Active”; at Estrogen receptor, “Not Active”.

For `COc1c(Cl)c(C)c(C=O)c(OC)c1CC1OC1(C)/C=C/[C@@]1(C)[C@H](C)CCC(=O)[C@@H]1C` (stereo partly specified), in the data set on U2OS (Homo sapiens), the IC50 stood at 10 µM. Besides, the MEC in data set [1] is 1 µM; on Estrogen receptor beta it was “Not Active”; on Estrogen receptor it was “Not Active”.

With `C/C(=C\Cc1c(O)c(C=O)c(C)c(Cl)c1OC(=O)CCCC(=O)O)CC/C=C(\C)[C@@H]1CC(=O)C(C)(C)O1`, the midpoint of inhibition with U2OS (Homo sapiens), the IC50, lay at 3.2 µM. Also, the MEC is 10 µM in data set [1], “Not Active” at Estrogen receptor beta and “Not Active” at Estrogen receptor.

Molecule `C/C(=C\Cc1c(O)c(C=O)c(C)c(Cl)c1OC(=O)c1ccncc1)CC/C=C(\C)[C@@H]1CC(=O)C(C)(C)O1` returned an IC50 with U2OS (Homo sapiens) of 10 µM. Besides, the results for the MEC (in data set [1]; on Estrogen receptor beta; at Estrogen receptor) were 10 µM, “Not Active” and “Not Active”, respectively.

In turn, `COc1c(C=O)c(C)c(Cl)c(OCC(=O)O)c1C/C=C(C)/C=C/[C@@]1(C)[C@H](C)CCC(=O)[C@@H]1C` registered an IC50 in the data set with U2OS (Homo sapiens) of 56 µM. Besides, the MEC in data set [1] is 3 µM; on Estrogen receptor beta, “Not Active”; at Estrogen receptor, “Not Active”; in data set [2] it was 3 µM.

`COc1c(C=O)c(C)c(Cl)c(OC(=O)c2cccnc2)c1C/C=C(C)/C=C/[C@@]1(C)[C@H](C)CCC(=O)[C@@H]1C`: in the data set on U2OS (Homo sapiens), the IC50 stood at 37 µM. In addition, the MEC in data set [1] is 10 µM; on Estrogen receptor beta, “Not Active”; on Estrogen receptor, “Not Active”; in data set [2] it was 100 µM.

`COc1c(C=O)c(C)c(Cl)c(O)c1C/C=C(\C)CC/C=C(\C)[C@@H]1CC(=O)C(C)(C)O1` gave an IC50 in the data set with U2OS (Homo sapiens) of 18 µM. Further, the MEC is 1 µM in data set [1], “Not Active” on Estrogen receptor beta, “Not Active” at Estrogen receptor and 30 µM in data set [2].

As to `CC(/C=C/[C@@]1(C)[C@H](C)CCC(=O)[C@@H]1C)=C\Cc1c(O)c(C=O)c(C)c(Cl)c1OC(=O)c1ccncc1`, the IC50 in the data set on U2OS (Homo sapiens) is 10 µM. Further, the MEC is 1 µM in data set [1], “Not Active” on Estrogen receptor beta, “Not Active” on Estrogen receptor and 10 µM in data set [2].

As to `CC(=O)Oc1c(Cl)c(C)c(C=O)c(O)c1C/C=C(\C)CC/C=C(\C)[C@@H]1CC(=O)C(C)(C)O1`, the IC50 in the data set on U2OS (Homo sapiens) was found to be 10 µM. Moreover, the figures for the MEC (in data set [1]; on Estrogen receptor beta; on Estrogen receptor) were 1 µM, “Not Active” and “Not Active”, respectively.

For the molecule `COc1c(C=O)c(C)c(Cl)c(OC(C)=O)c1C/C=C(\C)CC/C=C(\C)[C@@H]1CC(=O)C(C)(C)O1`, half-maximal inhibition in the data set on U2OS (Homo sapiens) (IC50) was put at 10 µM. Moreover, the figures for the MEC (in data set [1]; at Estrogen receptor beta; on Estrogen receptor) were 1 µM, “Not Active” and “Not Active”, respectively.

In the data set on U2OS (Homo sapiens), `Cc1c(Cl)c(O)c2c(c1C=O)OC(C)(/C=C/[C@]1(C)C(C)C(=O)CC[C@H]1C)CC2` (stereo partly specified) displayed an IC50 of 56 µM. For the same molecule, the MEC was 3 µM in data set [1], “Not Active” at Estrogen receptor beta and “Not Active” at Estrogen receptor.

In turn, `CC(/C=C/[C@@]1(C)[C@H](C)CCC(=O)[C@@H]1C)=C\Cc1c(O)c(C=O)c(C)c(Cl)c1OC(=O)CCCC(=O)O` displayed an IC50 with U2OS (Homo sapiens) of 0.6 µM. In addition, the MEC in data set [1] is 1 µM; at Estrogen receptor beta it was “Not Active”; at Estrogen receptor it was “Not Active”; in data set [2], 10 µM.

For `COc1c(Cl)c(C)c(C(=O)O)c(OC)c1C/C=C(C)/C=C/[C@@]1(C)[C@H](C)CCC(=O)[C@@H]1C`, half-maximal inhibition in the data set on U2OS (Homo sapiens) (IC50) required 56 µM. In addition, the MEC in data set [1] was 1 µM; at Estrogen receptor beta it was “Not Active”; at Estrogen receptor, “Not Active”.

In the case of `Cc1c(Cl)c2c(c(O)c1C=O)CC(CC(C)(O)/C=C/[C@@]1(C)[C@H](C)CCC3(OCCO3)[C@@H]1C)O2` (stereo partly specified), the 50% inhibitory concentration (IC50) with U2OS (Homo sapiens) is 18 µM. Also, the values for the MEC (in data set [1]; at Estrogen receptor beta; at Estrogen receptor) were 3 µM, “Not Active” and “Not Active”, respectively.

For the molecule `C/C(=C\Cc1c(O)c(C=O)c(C)c(Cl)c1OC(=O)c1cccnc1)CC/C=C(\C)[C@@H]1CC(=O)C(C)(C)O1`, the IC50 in the data set with U2OS (Homo sapiens) worked out at 10 µM. In addition, the MEC in data set [1] is 10 µM; on Estrogen receptor beta, “Not Active”; on Estrogen receptor, “Not Active”.

Take `COc1c(C=O)c(C)c(Cl)c(O)c1C/C=C(C)/C=C/[C@@]1(C)[C@H](C)CCC(=O)[C@@H]1C`: inhibition in the data set with U2OS (Homo sapiens) was half-maximal at 5.6 µM (IC50). The MEC in data set [1] is 1 µM; on Estrogen receptor beta, “Not Active”; at Estrogen receptor it was “Not Active”; in data set [2], 10 µM.

`C/C(=C\Cc1c(O)c(Cl)c(C)c(C=O)c1O)CC/C=C(\C)[C@@H]1CC(=O)C(C)(C)O1` [ASCOFURANONE]: the IC50 in the data set with U2OS (Homo sapiens) is 3.2 µM. For the same molecule, the results for the MEC (in data set [1]; at Estrogen receptor beta; on Estrogen receptor) were 3 µM, “Not Active” and “Not Active”, respectively.

Consider `COc1c(Cl)c(C)c(C=O)c(O)c1C/C=C(C)/C=C/[C@@]1(C)[C@H](C)CCC(=O)[C@@H]1C`, for which, in the data set on U2OS (Homo sapiens), half-maximal inhibition (IC50) required 1.8 µM. Moreover, the MEC was 1 µM in data set [1], “Not Active” at Estrogen receptor beta and “Not Active” at Estrogen receptor.

In the data set with U2OS (Homo sapiens), `COc1c(Cl)c(C)c(C=O)c(O)c1C/C=C(\C)CC/C=C(\C)[C@@H]1CC(=O)C(C)(C)O1` showed an IC50 of 5.6 µM. Further, the MEC in data set [1] is 1 µM; on Estrogen receptor beta, “Not Active”; on Estrogen receptor, “Not Active”.
